Results on 1 compound are retold here after patent US11931351B2, “(S)-3-[1-methylpyrrolidin-2-yl]pyridine, analogues thereof, precursors thereof, or its derivatives, for the use as a pharmaceutical in form of a parenteral administration and a process for the preparation of an injectable substance” (priority 2019, dated 2024).

SMILES strings stand for the structures. Values after ≈ are worked out from the molar mass of the structure shown.

Data set [1] has as its system human PBLs (leukocytes of peripheral blood). The following applies: MTT, 48 hours.
Description: (§1) Thereby, cell viability was determined on the basis of the mitochondria-dependent reduction of MTT (3-[4,5-dimethyltiazol 2yl]-2,5-diphenyltetrazolium bromide) to formazan. […] Next cells were treated with 20 μl of MTT. After 3 hours of incubation at 37° C., the formazan blue formed in the cells was dissolved in 100 μl of SDS (sodium dodecylsulfate) for 3 hours in 37° C. The optical density was measured at 570 nm.
(§2) After the cytotoxicity tests LC50 (LC50-lethal concentration, 50%-dose required to kill half of the cells after a specified test duration) were estimated for each cell lines and PBLs (leukocytes of peripheral blood). Additionally for PBLs LC10 and LC5 were calculated.
(§3) On the basis of the results of MTT assay for human leukocytes the LC50, LC10 and LC5 were evaluated.
Another data set relates to IL-6 production. The following applies: human PBLs; 1 mg/ml, 500 μg/ml, 300 μg/ml.
Data set [2] concerns HS-683 cells. The experiment in a line: cells. The following applies: Homo sapiens, Hs 683, 96 h, read-out: concentration that inhibits 50% of the proliferation.
The conditions of data set [3]: background statement; cited from earlier work.
Data set [4] has as its system HS-683 cells. The following applies: HS-683, 96 hours incubation, MTT.
The conditions of data set [5]: after 72 h treatment, n=10 per group; compared to antimicrobians/antimycotics (group B) and no treatment (group C).
Data set [6] can be described thus: in vitro. The following applies: human, HS683 cells (neuronal glioma cell line).
Description: (§4) In a further example cytotoxicity tests were performed with three different cell lines (FIG. 2a, 2b, 2c): • WI-38 (human diploid cell line from normal embryonic lung tissue) • A549 (human lung adenocarcinoma epithelial cell line) and • HS683 (human neuronal glioma cell line).
as §1
(§5) After the cytotoxicity tests LC50 (LC50-lethal concentration, 50%-dose required to kill half of the cells after a specified test duration) were estimated for each cell lines and PBLs (leukocytes of peripheral blood).
Data set [7] in a line: in vitro. The following applies: human, peripheral blood leukocytes (PBLs).
Description: as §1, §2, §3
For data set [8], the system named is A549 cells. The following applies: A549, 96 hours incubation, MTT.
The test system of another data set is WI-38, A549 and HS 683. Put plainly: cells. The following applies: Homo sapiens, read-out: doses that inhibit 50% of cell proliferation (summary).
Data set [9] can be described thus: in vitro. The following applies: human, A549 cells (lung adenocarcinoma epithelial cell line).
Description: as §4, §1, §5
The subject of data set [10] is A549 cells. The experiment in a line: cells. The following applies: Homo sapiens, A549, 96 h, read-out: concentration that inhibits 50% of the proliferation.
The conditions of data set [11]: background statement; cited from earlier work. The source holds these as a separate data set.
The test system of a further data set is H1N1 virus. The following applies: 0,002 mg/kg each 24 hours; 24 hours after treatment; versus control group.
Data set [12] in a line: in vitro. The following applies: human, WI-38 cells (normal embryonic lung diploid cell line).
Description: as §4, §1, §5
For data set [13], the system named is WI-38 cells. The following applies: WI-38, 96 hours incubation, MTT.
The test system of data set [14] is WI-38 cells. Put plainly: cells. The following applies: Homo sapiens, WI-38, 96 h, read-out: concentration that inhibits 50% of the proliferation.

`CN1CCC[C@H]1c1cccnc1` [(S)-3-[1-Methylpyrrolidin-2-yl]pyridine] returned an LC5 in [1] of 0.5 mg/mL. In data set [1], this compound yielded an LC10 of 1000 µg/mL (≈ 6.16 mM). The “effect on IL-6 production” value with IL-6 production is “no effect”. Further, the IC50 was 2900 µg/mL (≈ 17.9 mM) with HS-683 cells [2]; > 1000 µg/mL with WI-38, A549 and HS 683; 2000 µg/mL (≈ 12.3 mM) with A549 cells [10]; 1000 µg/mL (≈ 6.16 mM) with WI-38 cells [14]. In addition, the “half-life in the body” value in data set [3] is “approximately two”. Also, the “concentration that inhibits 99% of the proliferation” value in the data set on HS-683 cells [4] was found to be 5.5 mg/mL; in the data set with A549 cells [8], 5.5 mg/mL; in the data set on WI-38 cells [13], 4.5 mg/mL. In addition, the “healing effect on ulcer” value in data set [5] is “increased healing effect”. The CC50 at 48 h came to 3500 µg/mL (≈ 21.6 mM) in the data set “in vitro [6]”, 7000 µg/mL (≈ 43.1 mM) in “in vitro [7]”, 4500 µg/mL (≈ 27.7 mM) in “in vitro [9]” and 3000 µg/mL (≈ 18.5 mM) in the data set “in vitro [12]”. Besides, in data set [11], the miscibility with water result is “miscible with water”. Moreover, in data set [11], the “solubility in alcohol, ether or light petroleum” value is reported as “readily soluble”. Besides, in the data set on H1N1 virus, the “egg production of H1N1 infected chicken” value is “began to lay off eggs”.
